ChEMBL document CHEMBL2311349, “Evidence for a new binding mode to GSK-3: allosteric regulation by the marine compound palinurin” (Eur J Med Chem, 2013)
Blank lines part the entries; values can stand above or below the compound they belong to. The source made the active and inactive calls. The calls are words filed in the database; no cut-off is given here.

Key:
[1] = target: T1, Glycogen synthase kinase-3 beta (Homo sapiens, UniProt P49841); assay: Inhibition of human recombinant GSK-3beta using GS2 peptide as substrate and [gamma33P]-ATP after 30 mins by scintillation counting
Target sequence in this assay (P49841 whole entry): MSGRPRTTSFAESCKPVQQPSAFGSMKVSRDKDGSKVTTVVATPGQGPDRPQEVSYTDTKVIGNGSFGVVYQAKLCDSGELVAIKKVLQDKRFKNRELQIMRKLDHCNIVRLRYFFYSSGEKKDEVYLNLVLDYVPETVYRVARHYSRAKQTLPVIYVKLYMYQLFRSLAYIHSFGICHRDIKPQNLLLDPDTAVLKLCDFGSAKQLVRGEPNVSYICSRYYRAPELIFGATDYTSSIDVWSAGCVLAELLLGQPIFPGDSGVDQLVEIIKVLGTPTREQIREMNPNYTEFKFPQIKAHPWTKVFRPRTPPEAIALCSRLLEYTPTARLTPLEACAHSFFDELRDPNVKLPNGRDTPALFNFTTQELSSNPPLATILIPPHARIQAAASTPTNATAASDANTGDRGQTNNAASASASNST

[2] = target: T1, Glycogen synthase kinase-3 beta; assay: Inhibition of human recombinant GSK-3beta using GS2 peptide as substrate and [gamma33P]-ATP at 50 uM after 30 mins by scintillation counting
Target sequence in this assay (P49841 whole entry, looked up): as the sequence (P49841 whole entry) above

[3] = target: T1, Glycogen synthase kinase-3 beta; conditions: SH-SY5Y, 15 to 200 uM
Target sequence in this assay (P49841 whole entry, looked up): as the sequence (P49841 whole entry) above
Description: Inhibition of GSK-3beta in human SH-SY5Y cells assessed as reduction of tau phosphorylation at 15 to 200 uM after 18 hrs by ELISA sandwich method

[4] = target: Casein kinase II (Homo sapiens, UniProt P67870+P68400+P19784); assay: (§1) Inhibition of human recombinant CK2 using GS2 peptide as substrate and [gamma33P]-ATP after 30 mins by scintillation counting; type: protein-complex assay
Sequence of Casein kinase II (Homo sapiens, UniProt P67870+P68400+P19784) (P67870 whole entry): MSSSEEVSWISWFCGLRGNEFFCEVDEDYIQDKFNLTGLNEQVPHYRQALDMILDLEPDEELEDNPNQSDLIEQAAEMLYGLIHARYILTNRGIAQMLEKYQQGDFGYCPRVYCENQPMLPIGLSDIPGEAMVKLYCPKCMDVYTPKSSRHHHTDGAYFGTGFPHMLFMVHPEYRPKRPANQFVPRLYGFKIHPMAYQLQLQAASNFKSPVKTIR
Sequence of Casein kinase II (Homo sapiens, UniProt P67870+P68400+P19784) (P68400 whole entry): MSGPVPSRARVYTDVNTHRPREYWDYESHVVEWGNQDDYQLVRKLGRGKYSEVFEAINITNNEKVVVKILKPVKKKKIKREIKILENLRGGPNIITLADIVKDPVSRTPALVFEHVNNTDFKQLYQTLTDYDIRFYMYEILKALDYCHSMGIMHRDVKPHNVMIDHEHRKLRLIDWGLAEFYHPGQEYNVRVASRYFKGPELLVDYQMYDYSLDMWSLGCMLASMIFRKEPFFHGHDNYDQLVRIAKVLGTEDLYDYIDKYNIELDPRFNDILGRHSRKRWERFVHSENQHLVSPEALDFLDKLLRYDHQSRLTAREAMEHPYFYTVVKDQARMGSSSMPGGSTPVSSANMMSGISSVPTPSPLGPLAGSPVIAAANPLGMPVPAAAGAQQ
Sequence of Casein kinase II (Homo sapiens, UniProt P67870+P68400+P19784) (P19784 whole entry): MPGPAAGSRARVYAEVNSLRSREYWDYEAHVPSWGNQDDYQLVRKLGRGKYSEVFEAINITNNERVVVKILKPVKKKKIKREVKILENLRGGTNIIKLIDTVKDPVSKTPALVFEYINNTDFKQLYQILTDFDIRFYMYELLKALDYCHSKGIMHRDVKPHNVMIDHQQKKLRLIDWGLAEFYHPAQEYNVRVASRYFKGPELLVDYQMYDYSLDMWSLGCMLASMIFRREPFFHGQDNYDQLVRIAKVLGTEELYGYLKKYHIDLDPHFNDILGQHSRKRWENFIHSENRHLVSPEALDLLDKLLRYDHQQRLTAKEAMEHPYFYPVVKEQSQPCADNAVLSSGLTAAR

[5] = target: Casein kinase II (Homo sapiens, UniProt P19784+P67870+P68400); assay: as §1; type: protein-complex assay
Sequence of Casein kinase II (Homo sapiens, UniProt P19784+P67870+P68400) (P67870 whole entry): as the sequence (P67870 whole entry) above
Sequence of Casein kinase II (Homo sapiens, UniProt P19784+P67870+P68400) (P68400 whole entry): as the sequence (P68400 whole entry) above
Sequence of Casein kinase II (Homo sapiens, UniProt P19784+P67870+P68400) (P19784 whole entry): as the sequence (P19784 whole entry) above

[6] = target: Cyclin-dependent kinase 1 (Homo sapiens, UniProt P06493); assay: Inhibition of human recombinant CDK1 using histone H1 as substrate and [gamma33P]-ATP after 15 mins by scintillation counting
Sequence of Cyclin-dependent kinase 1 (P06493 whole entry): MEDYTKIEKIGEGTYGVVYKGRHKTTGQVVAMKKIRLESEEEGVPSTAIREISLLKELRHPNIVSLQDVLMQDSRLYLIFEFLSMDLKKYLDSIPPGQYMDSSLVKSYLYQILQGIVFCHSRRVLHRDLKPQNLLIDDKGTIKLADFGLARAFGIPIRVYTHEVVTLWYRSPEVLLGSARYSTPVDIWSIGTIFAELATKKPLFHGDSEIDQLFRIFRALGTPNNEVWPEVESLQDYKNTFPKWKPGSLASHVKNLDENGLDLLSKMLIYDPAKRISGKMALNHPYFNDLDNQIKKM

[7] = target: Cyclin-dependent kinase 5 (Homo sapiens, UniProt Q00535); assay: Inhibition of human recombinant CDK5 using histone H1 as substrate and [gamma33P]-ATP after 20 mins by scintillation counting
Sequence of Cyclin-dependent kinase 5 (Q00535 whole entry): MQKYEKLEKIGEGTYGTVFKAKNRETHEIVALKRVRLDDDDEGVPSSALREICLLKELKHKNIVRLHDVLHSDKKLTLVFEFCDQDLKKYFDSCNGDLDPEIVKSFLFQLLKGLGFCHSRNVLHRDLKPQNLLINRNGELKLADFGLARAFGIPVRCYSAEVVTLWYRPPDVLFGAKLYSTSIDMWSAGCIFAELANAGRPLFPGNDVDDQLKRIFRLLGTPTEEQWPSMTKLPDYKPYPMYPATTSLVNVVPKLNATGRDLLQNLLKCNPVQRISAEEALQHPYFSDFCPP

[8] = Inhibition of human recombinant MAPK using […] as substrate and [gamma33P]-ATP after 15 mins by scintillation counting
[9] = target: Glycogen synthase kinase-3 alpha (Homo sapiens, UniProt P49840); assay: Inhibition of human recombinant GSK-3alpha using GS2 peptide as substrate and [gamma33P]-ATP after 12 mins by scintillation counting
Sequence of Glycogen synthase kinase-3 alpha (P49840 whole entry): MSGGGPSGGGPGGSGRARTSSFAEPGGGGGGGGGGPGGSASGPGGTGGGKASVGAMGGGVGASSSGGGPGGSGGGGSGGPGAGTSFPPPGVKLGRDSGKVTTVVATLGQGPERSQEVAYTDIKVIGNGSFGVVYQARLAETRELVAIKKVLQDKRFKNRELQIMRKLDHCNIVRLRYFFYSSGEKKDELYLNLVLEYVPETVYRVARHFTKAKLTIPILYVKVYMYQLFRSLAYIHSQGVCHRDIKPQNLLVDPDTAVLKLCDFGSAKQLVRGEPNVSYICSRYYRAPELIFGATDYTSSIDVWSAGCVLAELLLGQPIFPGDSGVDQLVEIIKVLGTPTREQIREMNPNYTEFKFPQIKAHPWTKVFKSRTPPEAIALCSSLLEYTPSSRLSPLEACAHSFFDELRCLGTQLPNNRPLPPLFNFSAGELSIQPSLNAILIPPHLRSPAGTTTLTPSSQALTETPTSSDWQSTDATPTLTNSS

[10] = Cytotoxicity against human SH-SY5Y cells assessed as intracellular LDH level after 18 hrs; type: cell-based

inhibition [3]: Active
SMILES: CC1=C(O)[C@@H](C/C(C)=C/CCC(C)/C=C/C=C(\C)CCCc2ccoc2)OC1=O (stereo in doubt; A)

IC50 [4]: > 100 µM
IC50 [5]: > 100 µM
IC50 ([6]; read-out: IC50): > 100 µM
IC50 ([6]; read-out: pIC50 (converted)): > 100 µM
IC50 ([1]; read-out: IC50): 2.6 µM
IC50 ([7]; read-out: IC50): > 25 µM
IC50 ([7]; read-out: pIC50 (converted)): > 25.1 µM
IC50 [8]: > 100 µM
pIC50 [8]: < 4
IC50 [9]: 1.6 µM
SMILES: CC1=C(O)[C@@H](C/C(C)=C/CCC(C)/C=C/C=C(\C)CCCc2ccoc2)OC1=O (stereo in doubt; A) [PALINURIN]

inhibition [3]: Active
SMILES: CC1=C(O)[C@@H](C/C(C)=C/CCC(C)/C=C/C=C(\C)CCCc2ccoc2)OC1=O (stereo in doubt; B)

IC50 ([1]; read-out: IC50): 1.9 µM
SMILES: CC1=C(O)[C@@H](C/C(C)=C/CCC(C)/C=C/C=C(\C)CCCc2ccoc2)OC1=O (stereo in doubt; B) [PALINURIN]
Activity [10]: Non-toxic

More lines, now with the values behind:

SMILES: CCCCCCCCCC(=O)OC[C@H](O)[C@H]1OC(=O)C(O)=C1O
IC50 ([1]; read-out: IC50): 6.1 µM
inhibition [2]: 86%

SMILES: CCCCCCCC(=O)OC[C@H](O)[C@H]1OC(=O)C(O)=C1O
IC50 ([1]; read-out: IC50): > 50 µM
IC50 ([1]; read-out: pIC50 (converted)): > 50.1 µM
inhibition [2]: 65%

SMILES: CCCCCCCCCCCCCC(=O)OC[C@H](O)[C@H]1OC(=O)C(O)=C1O
IC50 ([1]; read-out: IC50): > 5.8 µM
IC50 ([1]; read-out: pIC50 (converted)): 5.75 µM

SMILES: O=C1O[C@H]([C@@H](O)CO)C(O)=C1O
inhibition [2]: 80%

SMILES: CC1=C(O)/C(=C/[C@H](C)CCC/C(C)=C/CCc2coc(Cc3ccoc3)c2)OC1=O [IRCININ 1]
IC50 ([1]; read-out: IC50): 0.8 µM

SMILES: CC1=C(O)/C(=C/[C@H](C)CC/C=C(/C)CCCc2coc(Cc3ccoc3)c2)OC1=O [IRCININ 2]
IC50 ([1]; read-out: IC50): 2.3 µM
